Measured values: patent US12240844B2 (Voronoi, Inc., priority 2019, dated 2025)

Key:
Assay type in all cases: biochemical
[1] = target: T1, human GST-CLK1 (129-end) (Homo sapiens, UniProt P49759); test: GST-CLK1 enzyme inhibition, ADP-Glo kinase assay; conditions: ATP 10 uM
T1 construct: purified human GST-CLK1 (129-end, Signalchem) enzyme; GST; purchased Signalchem
In short: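 ADP formation was read by ADP-Glo luminescence after 1 h at 25° C with 3 ng human GST-CLK1 (129-end), substrate and 10 uM ATP in Tris pH 7.4 buffer containing MgCl2, BSA and DTT. Inhibition relative to untreated solvent control gave IC50 (nM), run in triplicate.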

[2] = target: LRRK2 (Homo sapiens, UniProt Q5S007); test: LRRK2 enzyme inhibition, ADP-Glo kinase assay; parameters: purchased Invitrogen PR8604B
Chain of LRRK2 (Q5S007 970-2527 limits assumed): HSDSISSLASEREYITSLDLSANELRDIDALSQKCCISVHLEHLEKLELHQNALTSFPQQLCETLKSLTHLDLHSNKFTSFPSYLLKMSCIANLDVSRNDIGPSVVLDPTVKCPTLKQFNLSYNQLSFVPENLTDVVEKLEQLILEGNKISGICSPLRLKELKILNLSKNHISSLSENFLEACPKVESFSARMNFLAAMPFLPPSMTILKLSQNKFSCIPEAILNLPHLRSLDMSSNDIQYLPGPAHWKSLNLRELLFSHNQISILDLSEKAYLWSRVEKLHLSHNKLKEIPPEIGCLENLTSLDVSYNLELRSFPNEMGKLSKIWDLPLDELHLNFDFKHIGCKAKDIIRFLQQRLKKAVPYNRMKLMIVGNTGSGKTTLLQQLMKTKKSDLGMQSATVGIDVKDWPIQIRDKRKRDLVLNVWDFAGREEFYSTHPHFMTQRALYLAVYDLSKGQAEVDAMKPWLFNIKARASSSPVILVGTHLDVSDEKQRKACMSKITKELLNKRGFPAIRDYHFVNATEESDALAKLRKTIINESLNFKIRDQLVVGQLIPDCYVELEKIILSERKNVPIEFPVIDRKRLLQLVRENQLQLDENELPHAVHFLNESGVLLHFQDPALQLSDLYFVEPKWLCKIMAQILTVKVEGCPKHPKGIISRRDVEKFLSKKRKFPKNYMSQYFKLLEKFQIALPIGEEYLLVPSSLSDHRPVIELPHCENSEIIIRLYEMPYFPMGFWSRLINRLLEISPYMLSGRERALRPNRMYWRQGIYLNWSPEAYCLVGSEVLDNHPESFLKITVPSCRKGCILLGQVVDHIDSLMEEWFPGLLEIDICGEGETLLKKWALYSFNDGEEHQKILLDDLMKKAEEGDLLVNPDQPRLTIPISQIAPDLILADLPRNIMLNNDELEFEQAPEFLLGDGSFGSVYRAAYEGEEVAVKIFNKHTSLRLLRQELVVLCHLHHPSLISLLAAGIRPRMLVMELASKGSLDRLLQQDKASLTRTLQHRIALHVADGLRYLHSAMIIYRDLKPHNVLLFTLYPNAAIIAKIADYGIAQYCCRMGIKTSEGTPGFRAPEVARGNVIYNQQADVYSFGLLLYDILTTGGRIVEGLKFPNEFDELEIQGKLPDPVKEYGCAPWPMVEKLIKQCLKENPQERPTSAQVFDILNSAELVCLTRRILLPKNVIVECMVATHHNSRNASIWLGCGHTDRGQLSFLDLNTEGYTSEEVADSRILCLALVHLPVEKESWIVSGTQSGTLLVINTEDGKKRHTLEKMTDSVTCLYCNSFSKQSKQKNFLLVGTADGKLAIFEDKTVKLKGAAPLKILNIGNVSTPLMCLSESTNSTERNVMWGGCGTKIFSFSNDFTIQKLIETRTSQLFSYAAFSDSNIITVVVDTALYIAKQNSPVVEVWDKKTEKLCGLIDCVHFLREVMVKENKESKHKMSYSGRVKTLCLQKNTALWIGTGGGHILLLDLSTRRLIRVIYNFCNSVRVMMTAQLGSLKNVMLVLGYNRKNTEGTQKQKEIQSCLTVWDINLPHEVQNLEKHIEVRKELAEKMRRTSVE
In short: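 ADP-Glo luminescence read after 2 h at 25° C, 10 μM ATP, 25 ng purified human LRRK2 and […] substrate in Tris-HCl pH7.4 buffer with MgCl2, BSA, DTT. Twelve final concentrations, 50 μM down to 0.000001024 μM; IC50 (nM) from inhibition relative to untreated solvent control.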

[3] = target: LRRK2 (G2019S) (Homo sapiens, UniProt Q5S007, G2019S); test: LRRK2 G2019S enzyme inhibition, ADP-Glo kinase assay; parameters: purchased SignalChem L10-12GG
Chain of LRRK2 (G2019S) (Q5S007 970-2527 G2019S limits assumed): as the sequence (Q5S007 970-2527 limits assumed) above, with G1050S counted along it
In short: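 Activity read as ADP-Glo luminescence, normalized to untreated solvent control, with IC50 (nM) fitted over 12 final compound levels (top 50 μM). Reaction: 2 h, 25° C, human LRRK2 G2019S 16 ng, ATP 25 μM, substrate 0.2 μg, in Tris-HCl pH 7.4 with MgCl2, BSA and DTT.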

[4] = target: T2, human GST-DYRK1A (full length) (Homo sapiens, UniProt Q13627); test: GST-DYRK1A enzyme inhibition, ADP-Glo kinase assay; conditions: read-out: DYRK1 IC50
T2 construct: purified human GST-DYRK1A (full length, Thermo scientifics) enzyme; GST; purchased Thermo scientifics
In short: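 ADP-Glo luminescence quantified kinase activity after a 1 h, 25° C reaction of 10 ng full-length GST-tagged human DYRK1A, substrate and 10 uM ATP in Tris-HCl buffer pH 7.4 with MgCl2, BSA and DTT. Triplicate IC50 values (nM) calculated relative to untreated solvent control.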

T1 sequence (P49759 129-484 limits assumed): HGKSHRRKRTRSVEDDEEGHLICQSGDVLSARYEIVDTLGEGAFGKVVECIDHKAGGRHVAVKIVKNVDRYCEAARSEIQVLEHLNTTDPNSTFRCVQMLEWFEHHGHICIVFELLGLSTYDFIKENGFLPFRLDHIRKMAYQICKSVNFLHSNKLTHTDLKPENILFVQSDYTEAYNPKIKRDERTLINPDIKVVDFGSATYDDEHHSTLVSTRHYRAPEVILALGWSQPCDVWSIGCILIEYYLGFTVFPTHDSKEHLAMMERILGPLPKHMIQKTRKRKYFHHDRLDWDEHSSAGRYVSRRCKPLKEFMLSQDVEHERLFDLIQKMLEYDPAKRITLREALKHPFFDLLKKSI

SMILES	IC50 [1] [nM]	IC50 [2] [nM]	IC50 [3] [nM]	IC50 [4] [nM]
COc1cc(S(C)(=O)=O)ccc1Nc1cc(NC(C)C)c2cc[nH]c2n1 [Example 28, N^4-isopropyl-N^6-(2-methoxy-4-(methylsulfonyl)phenyl)-1H-pyrrolo[2,3-b]pyridine-4,6-diamine]	301 to 1000	101 to 300	301 to 1000	301 to 1000
COc1cc(S(=O)(=O)N2CCOCC2)ccc1Nc1cc(NC2CCCCC2)c2c(Cl)c[nH]c2n1 [Example 70, 3-chloro-N^4-cyclohexyl-N^6-(2-methoxy-4-(morpholinosulfonyl)phenyl)-1H-pyrrolo[2,3-b]pyridine-4,6-diamine]	301 to 1000	301 to 1000	301 to 1000	301 to 1000
CCNc1cc(Nc2ccc(C(=O)N3CCOCC3)c3c2OCCO3)nc2[nH]cc(C#N)c12 [Example 107, 4-(ethylamino)-6-((8-(morpholine-4-carbonyl)-2,3-dihydrobenzo[b] [1,4]dioxin-5-yl)amino)-1H-pyrrolo[2,3-b]pyridine-3-carbonitrile]	301 to 1000	< 100	< 100	301 to 1000
N#Cc1c[nH]c2nc(Nc3ccc(C(=O)N4CCOCC4)c4c3OCCO4)cc(NC3CC3)c12 [Example 111, 4-(cyclopropylamino)-6-((8-(morpholine-4-carbonyl)-2,3-dihydrobenzo[b] [1,4]dioxin-5-yl)amino)-1H-pyrrolo[2,3-b]pyridine-3-carbonitrile]	101 to 300	< 100	< 100	301 to 1000
COc1cc(S(C)(=O)=O)ccc1Nc1cc(NC2CC2)c2c(C#N)c[nH]c2n1 [Example 122, 4-(cyclopropylamino)-6-((2-methoxy-4-(methylsulfonyl)phenyl)amino)-1H-pyrrolo[2,3-b]pyridine-3-carbonitrile]	301 to 1000	< 100	101 to 300	301 to 1000
N#Cc1c[nH]c2nc(Nc3ccc(C(=O)N4CCC(N5CCOCC5)CC4)c4c3OCCO4)cc(NC3CC3)c12 [Example 116, 4-(cyclopropylamino)-6-((8-(4-morpholinopiperidine-1-carbonyl)-2,3-dihydrobenzo [b] [1,4]dioxin-5-yl)amino)-1H-pyrrolo[2,3-b]pyridine-3-carbonitrile]	101 to 300	< 100	< 100	301 to 1000
CCCNc1cc(Nc2ccc(S(C)(=O)=O)cc2OC)nc2[nH]cc(C(F)(F)F)c12 [Example 200, N^6-(2-methoxy-4-(methylsulfonyl)phenyl)-N^4-propyl-3-(trifluoromethyl)-1H-pyrrolo[2,3-b]pyridine-4,6-diamine]	301 to 1000	301 to 1000	301 to 1000	301 to 1000
COCCNc1cc(Nc2ccc(S(C)(=O)=O)cc2OC)nc2[nH]cc(C(F)(F)F)c12 [Example 201, N^6-(2-methoxy-4-(methylsulfonyl)phenyl)-N^4-(2-methoxyethyl)-3-(trifluoromethyl)-1H-pyrrolo[2,3-b]pyridine-4,6-diamine]	301 to 1000	101 to 300	301 to 1000	301 to 1000
CNc1cc(Nc2ccc(S(C)(=O)=O)cc2OC)nc2[nH]cc(C(F)(F)F)c12 [Example 178, N^6-(2-methoxy-4-(methylsulfonyl)phenyl)-N^4-methyl-3-(trifluoromethyl)-1H-pyrrolo[2,3-b]pyridine-4,6-diamine]	301 to 1000	301 to 1000	301 to 1000	< 100
CNc1cc(Nc2ccc(S(C)(=O)=O)cc2OC)nc2[nH]ccc12 [Example 25, N^6-(2-methoxy-4-(methylsulfonyl)phenyl)-N^4-methyl-1H-pyrrolo[2,3-b]pyridine-4,6-diamine]	301 to 1000	101 to 300	< 100	301 to 1000
CCCNc1cc(Nc2ccc(S(C)(=O)=O)cc2OC)nc2[nH]ccc12 [Example 27, N^6-(2-methoxy-4-(methylsulfonyl)phenyl)-N^4-propyl-1H-pyrrolo[2,3-b]pyridine-4,6-diamine]	301 to 1000	< 100	< 100	301 to 1000
CS(=O)(=O)CCNc1cc(Nc2ccc(C(=O)N3CCC(N4CCOCC4)CC3)c3c2OCCO3)nc2[nH]cc(C(F)(F)F)c12 [Example 165, (8-((4-((2-(methylsulfonyl)ethyl)amino)-3-(trifluoromethyl)-1H-pyrrolo[2,3-b]pyridin-6-yl)amino)-2,3-dihydrobenzo[b] [1,4]dioxin-5-yl)(4-morpholinopiperidin-1-yl)methanone]	< 100	< 100	< 100	< 100
CCNc1cc(Nc2ccc(P(C)(=O)O)cc2OC)nc2[nH]ccc12 [Example 32, (4-((4-(ethylamino)-1H-pyrrolo[2,3-b]pyridin-6-yl)amino)-3-methoxyphenyl) (methyl)phosphinic acid]	301 to 1000	301 to 1000	301 to 1000	301 to 1000

More lines, now with the values ahead:

IC50 [1] [nM]	IC50 [2] [nM]	IC50 [3] [nM]	IC50 [4] [nM]	SMILES
< 100	< 100	< 100	< 100	CNc1cc(Nc2ccc(C(=O)N3CCOCC3)c3c2OCC3)nc2[nH]cc(C(F)(F)F)c12 [Example 52, (7-((4-(methylamino)-3-(trifluoromethyl)-1H-pyrrolo[2,3-b]pyridin-6-yl)amino)-2,3-dihydrobenzofuran-4-yl)(morpholino) methanone]
101 to 300	< 100	< 100	301 to 1000	CS(=O)(=O)CCNc1cc(Nc2ccc(C(=O)N3CCOCC3)c3c2OCCO3)nc2[nH]cc(C#N)c12 [Example 110, 4-((2-(methylsulfonyl)ethyl)amino)-6-((8-(morpholine-4-carbonyl)-2,3-dihydrobenzo[b] [1,4]dioxin-5-yl)amino)-1H-pyrrolo[2,3-b]pyridine-3-carbonitrile]
301 to 1000	301 to 1000	301 to 1000	301 to 1000	COc1cc(S(=O)(=O)N2CCOCC2)ccc1Nc1cc(NC2CCC2)c2c(Cl)c[nH]c2n1 [Example 69, 3-chloro-N^4-cyclobutyl-N^6-(2-methoxy-4-(morpholinosulfonyl)phenyl)-1H-pyrrolo[2,3-b]pyridine-4,6-diamine]
301 to 1000	301 to 1000	301 to 1000	301 to 1000	O=C(c1ccc(Nc2cc(NC3CCCCC3)c3c(C(F)(F)F)c[nH]c3n2)c2c1OCCO2)N1CCOCC1 [Example 154, (8-((4-(cyclohexylamino)-3-(trifluoromethyl)-1H-pyrrolo[2,3-b]pyridin-6-yl)amino)-2,3-dihydrobenzo[b] [1,4]dioxin-5-yl)(morpholino) methanone]
301 to 1000	< 100	301 to 1000	301 to 1000	COc1cc(S(C)(=O)=O)ccc1Nc1cc(NC2CCCC2)c2c(C#N)c[nH]c2n1 [Example 121, 4-(cyclopentylamino)-6-((2-methoxy-4-(methylsulfonyl)phenyl)amino)-1H-pyrrolo[2,3-b]pyridine-3-carbonitrile]
301 to 1000	< 100	< 100	301 to 1000	CCCNc1cc(Nc2ccc(C(=O)N3CCOCC3)c3c2OCCO3)nc2[nH]cc(C#N)c12 [Example 108, 6-((8-(morpholine-4-carbonyl)-2,3-dihydrobenzo[b] [1,4]dioxin-5-yl)amino)-4-(propylamino)-1H-pyrrolo[2,3-b]pyridine-3-carbonitrile]
301 to 1000	301 to 1000	301 to 1000	301 to 1000	COc1cc(S(C)(=O)=O)ccc1Nc1cc(NC2CC2)c2c(C(F)(F)F)c[nH]c2n1 [Example 187, N^4-cyclopropyl-N^6-(2-methoxy-4-(methylsulfonyl)phenyl)-3-(trifluoromethyl)-1H-pyrrolo[2,3-b]pyridine-4,6-diamine]
< 100	301 to 1000	301 to 1000	< 100	COc1cc(S(C)(=O)=O)ccc1Nc1cc(NCCS(C)(=O)=O)c2c(C(F)(F)F)c[nH]c2n1 [Example 193, N^6-(2-methoxy-4-(methylsulfonyl)phenyl)-N^4-(2-(methylsulfonyl)ethyl)-3-(trifluoromethyl)-1H-pyrrolo[2,3-b]pyridine-4,6-diamine]
101 to 300	< 100	< 100	101 to 300	CNc1cc(Nc2ccc(C(=O)N3CCC(N4CCOCC4)CC3)c3c2OCCO3)nc2[nH]cc(C#N)c12 [Example 115, 4-(methylamino)-6-((8-(4-morpholinopiperidine-1-carbonyl)-2,3-dihydrobenzo[b] [1,4]dioxin-5-yl)amino)-1H-pyrrolo[2,3-b]pyridine-3-carbonitrile]
